“And” between values parts separate entries of the source, which are not always exact repeats. Identical values can stand only once.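 Each compound was tested at five concentrations against cells in 96-well plates for 48 hours. Abbreviation: GI50, concentration required for 50% inhibition of growth. TGI marks complete inhibition of growth.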
Legend:
Assay in all cases: NCI tumour cell line growth inhibition, 48 h
[1] = test system: SR leukemia
[2] = test system: EKVX NSCLC
[3] = test system: SW-620 colon
[4] = test system: HL-60(TB) leukemia
[5] = test system: OVCAR-5 ovarian
[6] = test system: IGROV1 ovarian
[7] = test system: CAKI-1 renal
[8] = test system: SK-MEL-5 melanoma
[9] = test system: NCI-H23 lung
[10] = test system: SK-MEL-28 melanoma

For CN1CSC(=S)N(Cc2ccccc2)C1, the GI50 [1] was 2.11 µM, the TGI [1] was greater than 100 µM and the GI50 [2] was 30.3 µM. The TGI [2] was greater than 100 µM, the GI50 [3] was 3.16 µM and the TGI [3] was 12.4 µM. The GI50 [4] was 4.03 µM, the TGI [4] was 97.3 µM and the GI50 [5] was 16.5 µM. The TGI [5] was 30.2 µM, the GI50 [6] was 10.3 µM and the TGI [6] was 27.5 µM. For the same compound, the GI50 [7] was 34.6 µM, the TGI [7] was greater than 100 µM and the GI50 [8] was 13.1 µM. The TGI [8] was 26.1 µM, the GI50 [9] was 14.1 µM and the TGI [9] was 36.6 µM. The GI50 [10] was 18.4 µM and the TGI [10] was 41 µM.

In the case of O=C1c2ccccc2C(=O)c2c(OCCOCCO)cccc21, the TGI [1] is reported as greater than 100 µM, the TGI [2] is reported as greater than 100 µM and the TGI [3] is reported as greater than 100 µM. It also gave a TGI [4] greater than 100 µM, a TGI [5] greater than 100 µM and a TGI [6] greater than 100 µM. For the same compound, the TGI [7] was 74.2 µM, the TGI [8] was greater than 100 µM and the TGI [9] was greater than 100 µM. For the same compound, the TGI [10] was greater than 100 µM.

CCCCCCCCCCCC[n+]1ccc2ccccc2c1 showed a GI50 [1] of 0.75 µM, a TGI [1] of 2.57 µM and a GI50 [2] of 0.4 µM. It also gave a TGI [2] of 1.77 µM, a GI50 [3] of 0.996 µM and a TGI [3] of 2.56 µM. For the same compound, the GI50 [4] was 0.267 µM, the TGI [4] was 0.954 µM and the GI50 [5] was 1.34 µM. It also gave a TGI [5] of 3.74 µM, a GI50 [6] of 0.413 µM and a TGI [6] of 1.85 µM. It also gave a GI50 [7] of 1.65 µM, a TGI [7] of 5.06 µM and a GI50 [8] of 0.317 µM. It also gave a TGI [8] of 1.28 µM, a GI50 [9] of 0.646 µM and a TGI [9] of 3.09 µM. The GI50 [10] was 1.47 µM and the TGI [10] was 3 µM.

Work on NC(=O)NC1C(C(N)=O)N(Cc2ccccc2)C(=O)N1Cc1ccccc1 (configuration not stated) yielded a TGI [1] greater than 100 µM, a TGI [2] greater than 100 µM and a TGI [3] greater than 100 µM. It also gave a TGI [4] greater than 100 µM, a TGI [5] greater than 100 µM and a TGI [6] greater than 100 µM. It also gave a TGI [7] greater than 100 µM, a TGI [8] greater than 100 µM and a TGI [9] greater than 100 µM. The TGI [10] was greater than 100 µM.

CSc1ccc2c(c1)C(N1CCN(C)CC1)Cc1ccccc1S2 (configuration not stated) was tested, and the GI50 [1] was 1.66 µM, the TGI [1] was 5.21 µM and 3.83 µM and the GI50 [2] was 2.08 µM. The TGI [2] was 8.64 µM and 7.13 µM, the GI50 [3] was 1.69 µM and the TGI [3] was 20.6 µM and 3.42 µM. The GI50 [4] was 1.94 µM, the TGI [4] was 10.7 µM and 3.81 µM and the GI50 [5] was 1.95 µM. For the same compound, the TGI [5] was 7.25 µM and 3.67 µM, the TGI [6] was 7.3 µM and 4.91 µM and the GI50 [7] was 1.62 µM. The TGI [7] was 13.3 µM and 3.33 µM, the GI50 [8] was 1.56 µM and the TGI [8] was 3.53 µM and 2.9 µM. The GI50 [9] was 3.22 µM, the TGI [9] was 28.8 µM and 11.8 µM and the GI50 [10] was 1.64 µM. For the same compound, the TGI [10] was 3.06 µM.

With COc1ccc(N(C)c2nc(N)nc3sc4c(c23)CCCC4)cc1 the GI50 [1] was less than 0.01 µM, the TGI [1] was 11 µM and the GI50 [2] was less than 0.01 µM. For the same compound, the TGI [2] was 18.7 µM, the GI50 [3] was less than 0.01 µM and the TGI [3] was 16.4 µM. It also gave a GI50 [4] of less than 0.01 µM, a TGI [4] of 0.0101 µM and a GI50 [5] of less than 0.0125 µM. It also gave a TGI [5] of 19.5 µM, a GI50 [6] of less than 0.01 µM and a TGI [6] of 13 µM. It also gave a GI50 [7] of less than 0.0137 µM, a TGI [7] of 15.4 µM and a GI50 [8] of less than 0.01 µM. It also gave a TGI [8] of 0.505 µM, a GI50 [9] of less than 0.01 µM and a TGI [9] of 20.8 µM. It also gave a GI50 [10] of 4.3 µM and a TGI [10] of 23.4 µM.

For NC(=S)c1c(N)n(C2OC(CO)C(O)C2O)c2ncnc(N)c12 (configuration not stated), the GI50 [1] was 0.0636 µM, the TGI [1] was 0.403 µM and the GI50 [2] was 0.345 µM. It also gave a TGI [2] of 11 µM, a GI50 [3] of 0.177 µM and a TGI [3] of 0.836 µM. The GI50 [4] was 0.135 µM, the TGI [4] was 0.407 µM and the GI50 [5] was 0.342 µM. The TGI [5] was 2.92 µM, the GI50 [7] was 0.515 µM and the TGI [7] was 5.42 µM. The GI50 [8] was 0.162 µM, the TGI [8] was 2.05 µM and the GI50 [9] was 0.258 µM. It also gave a TGI [9] of 1.14 µM, a GI50 [10] of 0.295 µM and a TGI [10] of 1.81 µM.

CO[C@H]1C[C@@H]2CC[C@@H](C)[C@@](O)(O2)C(=O)C(=O)N2CCCC[C@H]2C(=O)O[C@H]([C@H](C)C[C@@H]2CC[C@@H](OCCO)[C@H](OC)C2)CC(=O)[C@H](C)C=C(C)[C@@H](O)[C@@H](OC)C(=O)[C@H](C)C[C@H](C)/C=C/C=C/C=C1C was tested, and the GI50 [1] was less than 0.01 µM, the TGI [1] was 10.2 µM and the GI50 [2] was less than 0.01 µM. For the same compound, the TGI [2] was 21.5 µM, the GI50 [3] was 8.49 µM and the TGI [3] was 23.9 µM. For the same compound, the GI50 [4] was 8.63 µM, the TGI [4] was 38.4 µM and the GI50 [5] was less than 0.01 µM. It also gave a TGI [5] of 20.3 µM, a GI50 [6] of less than 0.01 µM and a TGI [6] of 17 µM. It also gave a TGI [7] of 21 µM, a GI50 [8] of 1.75 µM and a TGI [8] of 18.1 µM. The TGI [9] was 22.7 µM, the GI50 [10] was 11.3 µM and the TGI [10] was 24.5 µM.

With COc1cc2nc3cc([N+](=O)[O-])ccc3c(NCCNCC(C)(C)O)c2cc1OC the GI50 [1] was 0.238 µM, the TGI [1] was 3.04 µM and the GI50 [2] was 1.72 µM. The TGI [2] was 5.7 µM, the GI50 [3] was 0.54 µM and the TGI [3] was 4.07 µM. The GI50 [4] was 2.83 µM, the TGI [4] was 7.49 µM and the GI50 [5] was 2.22 µM. For the same compound, the TGI [5] was 8.87 µM, the GI50 [6] was 0.457 µM and the TGI [6] was 2.16 µM. For the same compound, the GI50 [7] was 2.42 µM, the TGI [7] was 11 µM and the GI50 [9] was 0.629 µM. For the same compound, the TGI [9] was 3.43 µM.

In the case of CCCCCCCCCCCCCC[C@@H](O)[C@H]1CC[C@H]([C@H]2CC[C@H]([C@H](O)CCCCCC[C@@H](O)CC3=C[C@H](C)OC3=O)O2)O1, the GI50 [1] is reported as 5.88 µM, the TGI [1] is reported as 6.05 µM and > 25 µM and the GI50 [2] is reported as 1.68 µM. For the same compound, the TGI [2] was 9.27 µM and > 25 µM, the GI50 [3] was 2.44 µM and the TGI [3] was greater than 25 µM. The GI50 [4] was greater than 25 µM, the TGI [4] was 7.14 µM and > 25 µM and the GI50 [5] was 4.61 µM. The TGI [5] was greater than 25 µM, the GI50 [6] was 2.61 µM and the TGI [6] was 8.75 µM and > 25 µM. For the same compound, the GI50 [7] was 1.75 µM, the TGI [7] was 5.01 µM and > 25 µM and the GI50 [8] was 0.717 µM. For the same compound, the TGI [8] was 2.52 µM and > 25 µM, the TGI [9] was greater than 25 µM and the GI50 [10] was 2.9 µM. For the same compound, the TGI [10] was greater than 25 µM.

With CN(c1ccccc1)c1c(Cl)c(=O)oc2c1ccc1occc12 the TGI [1] was greater than 100 µM, the TGI [2] was greater than 100 µM and the TGI [3] was greater than 100 µM. It also gave a TGI [4] greater than 100 µM, a TGI [5] greater than 100 µM and a TGI [7] greater than 100 µM. The TGI [8] was greater than 100 µM, the TGI [9] was greater than 100 µM and the TGI [10] was greater than 100 µM.

CC(SC(=O)Nc1ccc(N=Nc2ccccc2)cc1)C(=O)O (configuration not stated) showed a TGI [1] greater than 100 µM, a TGI [2] greater than 100 µM and a TGI [3] greater than 100 µM. It also gave a TGI [4] greater than 100 µM, a TGI [5] greater than 100 µM and a TGI [6] greater than 100 µM. For the same compound, the TGI [7] was greater than 100 µM, the TGI [9] was greater than 100 µM and the TGI [10] was greater than 100 µM.

Work on O=C(NNc1ccccc1)/C(=C/c1ccc2c(c1)OCO2)NC(=O)c1ccccc1 yielded a TGI [1] greater than 100 µM, a TGI [2] greater than 100 µM and a TGI [4] greater than 100 µM. For the same compound, the TGI [5] was greater than 100 µM, the TGI [6] was greater than 100 µM and the TGI [7] was greater than 100 µM. It also gave a TGI [8] greater than 100 µM, a TGI [9] greater than 100 µM and a TGI [10] greater than 100 µM.

For c1ccc2c(c1)cc1n2CC2CN=NC12 (configuration not stated), the TGI [1] was greater than 100 µM, the TGI [2] was greater than 100 µM and the TGI [3] was greater than 100 µM. For the same compound, the TGI [4] was greater than 100 µM, the TGI [5] was greater than 100 µM and the TGI [6] was greater than 100 µM. For the same compound, the TGI [7] was greater than 100 µM, the TGI [8] was greater than 100 µM and the TGI [10] was greater than 100 µM.

For CCOC(=O)c1cnc2c(C)cccc2c1Nc1ccc(C(C)=O)cc1, the GI50 [1] was 60.8 µM, the TGI [1] was greater than 100 µM and the GI50 [3] was 92.6 µM. The TGI [3] was greater than 100 µM, the GI50 [4] was greater than 100 µM and the TGI [4] was greater than 100 µM. It also gave a GI50 [5] of 34.6 µM, a TGI [5] greater than 100 µM and a GI50 [6] of 25.5 µM. It also gave a TGI [6] greater than 100 µM, a GI50 [7] of 79 µM and a TGI [7] greater than 100 µM. It also gave a GI50 [8] of 3.75 µM, a TGI [8] of 19.7 µM and a GI50 [9] of 28.5 µM. For the same compound, the TGI [9] was greater than 100 µM, the GI50 [10] was 50.2 µM and the TGI [10] was greater than 100 µM.

CCSc1c2ccccc2c(-c2nc(F)nc(F)n2)n1CCc1ccccc1 gave a TGI [1] greater than 100 µM, a TGI [2] greater than 100 µM and a TGI [3] greater than 100 µM. It also gave a TGI [4] greater than 100 µM, a TGI [5] greater than 100 µM and a TGI [7] greater than 100 µM. The TGI [9] was greater than 100 µM and the TGI [10] was greater than 100 µM.

From PubChem BioAssay (NCI)
